Where only a bound is given, the exact number is not on record here.

Series [1] has as its target T1, Polyunsaturated fatty acid 5-lipoxygenase (Homo sapiens, UniProt P09917).
T1 sequence (P09917 whole entry): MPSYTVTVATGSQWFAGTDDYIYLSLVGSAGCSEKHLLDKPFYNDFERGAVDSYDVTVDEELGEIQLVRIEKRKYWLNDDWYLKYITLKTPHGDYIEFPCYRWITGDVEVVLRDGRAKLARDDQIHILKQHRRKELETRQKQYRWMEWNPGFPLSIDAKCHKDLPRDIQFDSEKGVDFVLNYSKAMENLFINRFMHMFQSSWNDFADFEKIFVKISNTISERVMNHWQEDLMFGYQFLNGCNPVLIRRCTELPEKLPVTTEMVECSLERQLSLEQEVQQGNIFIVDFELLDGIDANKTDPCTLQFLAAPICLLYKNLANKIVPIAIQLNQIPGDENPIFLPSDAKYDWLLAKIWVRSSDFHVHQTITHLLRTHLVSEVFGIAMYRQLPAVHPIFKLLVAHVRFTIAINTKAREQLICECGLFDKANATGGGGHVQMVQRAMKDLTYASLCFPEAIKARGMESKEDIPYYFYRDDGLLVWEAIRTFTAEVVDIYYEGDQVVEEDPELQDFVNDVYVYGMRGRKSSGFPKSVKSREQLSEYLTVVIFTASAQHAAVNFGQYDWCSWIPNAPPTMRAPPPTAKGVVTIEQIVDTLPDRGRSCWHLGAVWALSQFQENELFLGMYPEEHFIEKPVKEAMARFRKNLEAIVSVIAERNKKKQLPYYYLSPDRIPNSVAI
The experiment in a line: Inhibition of 5-LOX (unknown origin).

Series [2] deals with Transient receptor potential cation channel subfamily V member 1 (Homo sapiens, UniProt Q8NER1). The experiment in a line: Inhibition of TRPV1 (unknown origin).
The target in series [3] is Prostaglandin G/H synthase 2.
Series [4] is described as follows: Cmax in Sprague-Dawley rat at 10 mg/kg, IG. It is filed as ADME, organism-based. Also on record: dose 10 mg/kg, route ig. To be noted: in vivo, po.
Series [5] can be described thus: Tmax in Sprague-Dawley rat at 10 mg/kg, IG. It is filed as ADME, organism-based. The settings on record: in vivo, po.
Series [6] can be described thus: Apparent clearance in Sprague-Dawley rat at 1 mg/kg, iv. It is filed as ADME, organism-based. The settings on record: in vivo.
Series [7] in a line: Bioavailability in Sprague-Dawley rat at 1 mg/kg, iv. The settings on record: in vivo. It is filed as ADME, organism-based.
The species named for series [8] is Mus musculus. The experiment in a line: Analgesic activity in formalin-induced mouse pain model assessed as reduction in immediate response by measuring licking time. The class given is functional.
Series [9] is filed under the species Mus musculus. The experiment in a line: Analgesic activity in formalin-induced mouse pain model assessed as time consumed for nociceptive behavior by measuring licking time. It is filed as functional.
Series [10] has as its system Mus musculus. The experiment in a line: Antiinflammatory activity against capsaicin-induced mouse ear edema model assessed as decrease in ear thickness at 20 mg/kg relative to control. The class given is functional.

Sequence of Transient receptor potential cation channel subfamily V member 1 (Q8NER1 whole entry): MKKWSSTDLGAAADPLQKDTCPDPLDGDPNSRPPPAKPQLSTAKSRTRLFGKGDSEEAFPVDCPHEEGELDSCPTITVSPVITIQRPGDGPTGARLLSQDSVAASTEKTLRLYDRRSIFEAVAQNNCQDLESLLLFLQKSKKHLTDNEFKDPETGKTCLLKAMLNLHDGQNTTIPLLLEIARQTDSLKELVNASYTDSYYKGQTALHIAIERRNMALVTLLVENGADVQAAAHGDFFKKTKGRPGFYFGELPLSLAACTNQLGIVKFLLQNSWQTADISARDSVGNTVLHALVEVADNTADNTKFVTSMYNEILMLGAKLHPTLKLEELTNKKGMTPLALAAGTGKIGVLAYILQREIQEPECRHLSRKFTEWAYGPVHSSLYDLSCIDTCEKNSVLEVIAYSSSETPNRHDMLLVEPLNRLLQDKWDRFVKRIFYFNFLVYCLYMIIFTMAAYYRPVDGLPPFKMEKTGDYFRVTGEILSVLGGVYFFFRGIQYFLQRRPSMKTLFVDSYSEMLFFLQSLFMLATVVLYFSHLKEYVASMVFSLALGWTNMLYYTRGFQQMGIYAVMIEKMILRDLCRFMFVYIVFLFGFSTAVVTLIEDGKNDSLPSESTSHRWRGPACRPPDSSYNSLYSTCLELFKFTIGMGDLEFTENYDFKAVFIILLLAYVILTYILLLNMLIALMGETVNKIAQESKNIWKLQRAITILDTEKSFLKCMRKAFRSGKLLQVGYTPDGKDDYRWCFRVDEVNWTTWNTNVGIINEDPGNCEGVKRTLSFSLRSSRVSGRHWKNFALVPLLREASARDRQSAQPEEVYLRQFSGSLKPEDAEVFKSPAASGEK

A word on the IC50: it is the concentration needed to halve the response being measured. Read a low IC50 as greater potency in that assay. Regarding `Cc1ccc(-c2cc(C(F)(F)F)nn2-c2ccc(S(=O)(=O)NC(=O)CCCCC3CCSS3)cc2)cc1` (stereo unspecified), the IC50 in series [1] is 1420 nM; in [2], over 10000 nM; in [3], 370 nM.
Regarding `Cc1ccc(-c2cc(C(F)(F)F)nn2-c2ccc(S(=O)(=O)NC(=O)C(C)c3ccc(CC(C)C)cc3)cc2)cc1` (stereo unspecified), the IC50 came out at 520 nM in series [1], 1030 nM in series [2] and 25 nM in series [3].
Consider `Cc1ccc(-c2cc(C(F)(F)F)nn2-c2ccc(S(=O)(=O)NC(=O)c3ccccc3)cc2)cc1`, for which the IC50 turned out to be 120 nM in series [1] and 76 nM in series [3].
For orientation: Cmax means the peak of the concentration-time curve. As usually defined, the Tmax is the time from dosing to the highest level. Broadly, the bioavailability is the share of a dose that reaches the circulation, judged against a reference dose that is usually intravenous. A high value points to much systemic uptake. In [4], `COc1cc(C(=O)[N-]S(=O)(=O)c2ccc(-n3nc(C(F)(F)F)cc3-c3ccc(C)cc3)cc2)ccc1[O-].[Na+].[Na+]` displayed a Cmax of 5810 ng/mL. In addition, the 50% inhibitory concentration (IC50) stood at 460 nM in [1] and 11 nM in series [3]. In addition, in series [5], the time to peak (Tmax) was 4.5 h. Further, the clearance in [6] is 3.24 mL/min/kg. The molecule also registered a bioavailability in [7] of 96.8%. Besides, the Time in the series listed under Mus musculus [8] was found to be 0 min; in the series listed under Mus musculus [9] it was 85.5 s.
Turning to `COc1cc(/C=C/C(=O)[N-]S(=O)(=O)c2ccc(-n3nc(C(F)(F)F)cc3-c3ccc(C)cc3)cc2)ccc1[O-].[Na+].[Na+]`, the IC50 in series [1] stood at 310 nM; in [2] it was 140 nM; in [3], 23 nM. Also, in series [6], the clearance is 8.64 mL/min/kg. Moreover, the bioavailability in [7] came out at 13.3%.
Turning to `CCOC(=O)NS(=O)(=O)c1ccc(-n2nc(C(F)(F)F)cc2-c2ccc(C)cc2)cc1`, the IC50 was determined as 920 nM in [1] and 35 nM in series [3].
The term inhibition in vivo denotes how much of the control response was suppressed. For `Cc1ccc(-c2cc(C(F)(F)F)nn2-c2ccc(S(N)(=O)=O)cc2)cc1` [CELECOXIB], the IC50 in series [1] and in series [2] was over 10000 nM each time. Besides, in the series with Mus musculus [10], the inhibition in vivo at 20 mg/kg is 48.8%.

Source of the values: ChEMBL document CHEMBL5236621, “Synthesis and biological evaluation of N-(benzene sulfonyl)acetamide derivatives as anti-inflammatory and analgesic agents with COX-2/5-LOX/TRPV1 multifunctional inhibitory activity” (Bioorg Med Chem Lett, 2023).
